Reference: patent publication US6809112B2, “Method of treating sexual disturbances” (priority 1999, dated 2004)

## CN[C@@H]1Cc2cccc3[nH]c(=S)n(c23)C1.O=C(O)CC(O)C(=O)O
  melting point: 195 to 196 °C
